Test results published in patent publication US7766979B2, “Phase transformation in molecular solids” (Avantium International B.V., priority 2004, dated 2010).
Where two headings read alike, the source gives them in different places. Values belong to the molecule of their own block, whether it stands above or below them.

How the values were obtained:
[1] = cited from earlier work; for phase transformation under mechanical stress (grinding, pressure): conventional grinding or pressure, literature
[2] = tribochemical treatment (high-energy grinding) with phase detection by X-ray powder diffractometry; type: physicochemical; conditions: for phase transformation achieved by the process (summary statement): Fritsch Pulverisette 7, hardened steel, as a solid
Protocol: The detection of the particular modification/form was conducted with X-ray powder diffractometry: X-ray diffractometer: SToe STADI P transmission diffractometer, CuKα1: 1.54060 Å, linear position-sensitive detector, measurement range 5-40°2Theta, step width 0.01°2Theta, measurement time 960 sec/step.
High-energy mill: Fritsch Pulverisette 7;
Grinding cup: hardened steel, volume 10 ml; […]
Temperature control: no temperature control […]
Amount of substance: 1.0 g

[3] = cited from earlier work; for temperature of conversion to the other polymorph: on heating
[4] = compared with form 1; cited from earlier work

phase found after tribochemical treatment ([2]; Experiment 3.1: 1.0 g, 800 rpm, 1 hour): partial transformation to form C | phase transformation achieved by the process (summary statement) ([2]; listed as form A): partly to form C
SMILES: CCCNC(=O)NS(=O)(=O)c1ccc(Cl)cc1 [Chlorpropamide form A, Chlorpropamide]
phase transformation under mechanical stress (grinding, pressure) ([1]; listed as form A): detectable phase transformations under none of the mechanical stresses listed

phase found after tribochemical treatment ([2]; Experiment 3.3: 1.0 g, 800 rpm, 60 minutes): transformed fully to form A | phase transformation achieved by the process (summary statement) ([2]; listed as form C): fully to form A
SMILES: CCCNC(=O)NS(=O)(=O)c1ccc(Cl)cc1 [Chlorpropamide form C, Chlorpropamide]
thermodynamic stability of the phase ([3]; at room temperature (acetazolamide)): metastable | phase transformation under mechanical stress (grinding, pressure) ([1]; listed as form C): partial phase transformation to form A | phase found after tribochemical treatment ([2]; Experiment 3.2: 1.0 g, 800 rpm, 15 minutes): clearly perceptible incipient transformation to form A

phase found after tribochemical treatment ([2]; Experiment 2.1: 1.0 g, 800 rpm, 1 hour): converted virtually fully to polymorph 1 | phase found after tribochemical treatment ([2]; Experiment 2.2: 1.0 g, 800 rpm, 5 minutes): attributable to the polymorph 2 used | phase found after tribochemical treatment ([2]; Experiment 2.3: 1.0 g, 800 rpm, 30 minutes): polymorph 1 is isolated | phase found after tribochemical treatment ([2]; Experiment 2.4: 1.0 g, 800 rpm, 45 minutes): polymorph 1 is likewise isolated | phase found after tribochemical treatment ([2]; Experiment 2.5: 1.0 g, 400 rpm, 30 minutes): attributable to the polymorph 2 used | phase found after tribochemical treatment ([2]; Experiment 2.6: 1.0 g, 400 rpm, 60 minutes): no phase transformation is observed
SMILES: CC(=O)Nc1nnc(S(N)(=O)=O)s1 [polymorph 2 of acetazolamide, 5-Acetamido-1,3,4-thiadiazole-2-sulfonamide]
temperature of conversion to the other polymorph [3]: 120-148 °C | phase transformation under mechanical stress (grinding, pressure) ([1]; listed as polymorph 2): Nor has the transformation of polymorph 2 to polymorph 1 under mechanical stress been observed | phase transformation achieved by the process (summary statement) [2]: virtually full transformation of polymorph 2 to polymorph 1

The next lines start with the molecule.

SMILES: CC(=O)Nc1nnc(S(N)(=O)=O)s1 [polymorph 1 of acetazolamide, 5-Acetamido-1,3,4-thiadiazole-2-sulfonamide]
phase transformation under mechanical stress (grinding, pressure) ([1]; listed as polymorph 1): not converted back to polymorph 2 | storage period without conversion back to polymorph 2 ([1]; storage): over 5 years

SMILES: Cc1ccnc(NS(=O)(=O)c2ccc(N)cc2)n1 [sulfamerazine form 1, 2-Sulfanilamido-4-methylpyrimidine]
phase transformation under mechanical stress (grinding, pressure) [1]: neither polymorphic form undergoes a transformation | phase found after tribochemical treatment ([2]; Example 1.1: 1.0 g, normal atmosphere, 800 rpm, 1 hour, no temperature control): Virtually full conversion of form 1 to the desired form 2 | phase found after tribochemical treatment ([2]; Example 1.2: 1.0 g, normal atmosphere, 800 rpm, 5 minutes): still attributable to form 1 | phase found after tribochemical treatment ([2]; Example 1.3: 1.0 g, normal atmosphere, 800 rpm, 15 minutes): still attributable to form 1 | phase found after tribochemical treatment ([2]; Example 1.4: 1.0 g, normal atmosphere, 800 rpm, 30 min): all of which are attributable to form 2 | phase found after tribochemical treatment ([2]; Example 1.5: 10.0 g, 7 balls, 40 ml grinding cup, 800 rpm, 15 minutes): those of form 1 | phase found after tribochemical treatment ([2]; Example 1.6: 10.0 g, 7 balls, 40 ml grinding cup, 800 rpm, 30 min): all of which are attributable to form 2 | phase found after tribochemical treatment ([2]; Example 1.7: 15.0 g, 2 balls, 40 ml grinding cup, 800 rpm, 120 and 180 min): formation of form 2 | phase transformation achieved by the process (summary statement) [2]: fully to form 2

SMILES: Cc1ccnc(NS(=O)(=O)c2ccc(N)cc2)n1 [sulfamerazine form 2, 2-Sulfanilamido-4-methylpyrimidine]
temperature of conversion to the other polymorph [3]: about 170 °C | hygroscopicity [4]: less hygroscopic | release of the active ingredient [4]: releases the sulfamerazine better
